From patent US12660819B2, “Herbicidal derivatives” (SYNGENTA CROP PROTECTION AG, priority 2020, dated 2026)

Key:
Type in all cases: in vivo
[1] = tested on: Amaranthus retoflexus (AMARE); assay: Pre-emergence Test (glasshouse, percentage damage to the plant); conditions: 1000 g/ha unless otherwise stated; for percentage damage to the plant, AMARE: five-point scale; for percentage damage to the plant, AMARE (five-point scale): Amaranthus retoflexus
[2] = tested on: Echinochloa crus-galli (ECHCG); assay: Post-emergence Test (glasshouse, percentage damage to the plant); conditions: 1000 g/ha unless otherwise stated, evaluated after 13 days; for Post-emergence Test ECHCG, percentage damage to the plant (five-point scale): post-emergence spray; for ECHCG, percentage damage caused to the plant (five-point scale): post-emergence
Procedure: (§1) Seeds of a variety of test species are sown in standard soil in pots (Amaranthus retoflexus (AMARE), Solanum nigrum (SOLNI), Setaria faberi (SETFA), Lolium perenne (LOLPE), Echinochloa crus-galli (ECHCG), Ipomoea hederacea (IPOHE), Abutilon theophrasti (ABUTH), Zea mays (ZEAMX), Amaranthus palmeri (AMAPA). After 8 days cultivation under controlled conditions in a glasshouse (at 24° C./16° C., day/night; 14 hours light; 65% humidity), the plants are sprayed with an aqueous spray solution derived from the formulation of the technical active ingredient in acetone/water (50:50) solution containing 0.5% Tween 20 (polyoxyethelyene sorbitan monolaurate, CAS RN 9005-64-5). Compounds are applied at 1000 g/ha unless otherwise stated. The test plants are then grown in a glasshouse under controlled conditions in a glasshouse (at 24° C./16° C., day/night; 14 hours light; 65% humidity) and watered twice daily. After 13 days the test is evaluated for the percentage damage caused to the plant. The biological activities are shown in the following table on a five-point scale (5=81-100%; 4=61-80%; 3=41-60%; 2=21-40%; 1=0-20%).

Setaria faberi (SETFA) [3] = assay: as above; conditions: 1000 g/ha unless otherwise stated, evaluated after 13 days; for Post-emergence Test SETFA, percentage damage to the plant (five-point scale): post-emergence spray; for SETFA, percentage damage caused to the plant (five-point scale): post-emergence
Procedure: as §1

[4] = tested on: Ipomoea hederacea (IPOHE); assay: as above; conditions: 1000 g/ha unless otherwise stated, evaluated after 13 days; for Post-emergence Test IPOHE, percentage damage to the plant (five-point scale): post-emergence spray; for IPOHE, percentage damage caused to the plant (five-point scale): post-emergence
Procedure: as §1

[5] = tested on: Amaranthus retoflexus (AMARE); assay: as above; conditions: 1000 g/ha unless otherwise stated, evaluated after 13 days; for Post-emergence Test AMARE, percentage damage to the plant (five-point scale): post-emergence spray; for AMARE, percentage damage caused to the plant (five-point scale): post-emergence
Procedure: as §1

Zea mays (ZEAMX) [6] = assay: as above; conditions: 1000 g/ha unless otherwise stated, evaluated after 13 days; for Post-emergence Test ZEAMX, percentage damage to the plant (five-point scale): post-emergence spray; for ZEAMX, percentage damage caused to the plant (five-point scale): post-emergence
Procedure: as §1

Zea mays (ZEAMX) [7] = assay: Pre-emergence Test (glasshouse, percentage damage to the plant); conditions: 1000 g/ha unless otherwise stated; for percentage damage to the plant, ZEAMX: five-point scale; for percentage damage to the plant, ZEAMX (five-point scale): Zea mays
[8] = tested on: Abutilon theophrasti (ABUTH); assay: as above; conditions: 1000 g/ha unless otherwise stated; for percentage damage to the plant, ABUTH: five-point scale; for percentage damage to the plant, ABUTH (five-point scale): Abutilon theophrasti
Setaria faberi (SETFA) [9] = assay: as above; conditions: 1000 g/ha unless otherwise stated; for percentage damage to the plant, SETFA: five-point scale; for percentage damage to the plant, SETFA (five-point scale): Setaria faberi
[10] = tested on: Ipomoea hederacea (IPOHE); assay: as above; conditions: 1000 g/ha unless otherwise stated; for percentage damage to the plant, IPOHE: five-point scale; for percentage damage to the plant, IPOHE (five-point scale): Ipomoea hederacea
[11] = tested on: Echinochloa crus-galli (ECHCG); assay: as above; conditions: 1000 g/ha unless otherwise stated; for percentage damage to the plant, ECHCG: five-point scale; for percentage damage to the plant, ECHCG (five-point scale): Echinochloa crus-galli

| SMILES | percentage damage to the plant, AMARE [1] | Post-emergence Test ECHCG, percentage damage to the plant (five-point scale) [2] | Post-emergence Test SETFA, percentage damage to the plant (five-point scale) (Setaria faberi (SETFA) [3]) | Post-emergence Test IPOHE, percentage damage to the plant (five-point scale) [4] | Post-emergence Test AMARE, percentage damage to the plant (five-point scale) [5] | Post-emergence Test ZEAMX, percentage damage to the plant (five-point scale) (Zea mays (ZEAMX) [6]) | percentage damage to the plant, ZEAMX (Zea mays (ZEAMX) [7]) | percentage damage to the plant, ABUTH [8] | percentage damage to the plant, SETFA (Setaria faberi (SETFA) [9]) | percentage damage to the plant, IPOHE [10] | percentage damage to the plant, ECHCG [11] | percentage damage to the plant, AMARE (five-point scale) [1] | SETFA, percentage damage caused to the plant (five-point scale) (Setaria faberi (SETFA) [3]) | IPOHE, percentage damage caused to the plant (five-point scale) [4] | AMARE, percentage damage caused to the plant (five-point scale) [5] | ZEAMX, percentage damage caused to the plant (five-point scale) (Zea mays (ZEAMX) [6]) | percentage damage to the plant, ZEAMX (five-point scale) (Zea mays (ZEAMX) [7]) | percentage damage to the plant, ABUTH (five-point scale) [8] | percentage damage to the plant, SETFA (five-point scale) (Setaria faberi (SETFA) [9]) | percentage damage to the plant, IPOHE (five-point scale) [10] | also measured |
| --- | --- | --- | --- | --- | --- | --- | --- | --- | --- | --- | --- | --- | --- | --- | --- | --- | --- | --- | --- | --- | --- |
| CCn1c(C)c(-c2cc(C)c(F)c(C)c2)c(=O)c(C(=O)O)c1-c1ccc(Cl)cc1 [Compound 173, 2-(4-chlorophenyl)-1-ethyl-5-(4-fluoro-3,5-dimethyl-phenyl)-6-methyl-4-oxo-pyridine-3-carboxylic acid] | 0 | 1 (1=0-20%) | 2 (2=21-40%) | 3 (3=41-60%) | 3 (3=41-60%) | 2 (2=21-40%) | 0 | 0 | 0 | 0 | 0 |  |  |  |  |  |  |  |  |  |  |
| CCn1c(C)c(-c2ccc(F)c(C#N)c2)c(=O)c(C(=O)O)c1-c1ccc(Cl)cc1 [Compound 174, 2-(4-chlorophenyl)-5-(3-cyano-4-fluoro-phenyl)-1-ethyl-6-methyl-4-oxo-pyridine-3-carboxylic acid] | 1 (1=0-20%) | 2 (2=21-40%) | 3 (3=41-60%) | 4 (4=61-80%) | 2 (2=21-40%) | 1 (1=0-20%) | 1 (1=0-20%) | 1 (1=0-20%) | 2 (2=21-40%) | 1 (1=0-20%) | 3 (3=41-60%) |  |  |  |  |  |  |  |  |  |  |
| CCn1c(C)c(-c2cc(F)ccc2Cl)c(=O)c(C(=O)O)c1-c1ccc(Cl)cc1 [Compound 175, 5-(2-chloro-5-fluoro-phenyl)-2-(4-chlorophenyl)-1-ethyl-6-methyl-4-oxo-pyridine-3-carboxylic acid] | 0 | 2 (2=21-40%) | 3 (3=41-60%) | 3 (3=41-60%) | 1 (1=0-20%) | 1 (1=0-20%) | 1 (1=0-20%) | 0 | 2 (2=21-40%) | 3 (3=41-60%) | 1 (1=0-20%) |  |  |  |  |  |  |  |  |  |  |
| CCOc1cc(-c2c(C)n(CC)c(-c3ccc(Cl)cc3)c(C(=O)O)c2=O)ccc1C(F)(F)F [Compound 176, 2-(4-chlorophenyl)-5-[3-ethoxy-4-(trifluoromethyl)phenyl]-1-ethyl-6-methyl-4-oxo-pyridine-3-carboxylic acid] | 0 | 1 (1=0-20%) | 1 (1=0-20%) | 1 (1=0-20%) | 2 (2=21-40%) | 1 (1=0-20%) | 0 | 0 | 0 | 0 |  |  |  |  |  |  |  |  |  |  |  |
| CCn1c(C)c(-c2cc(Cl)c(F)c(Cl)c2)c(=O)c(C(=O)O)c1-c1ccc(Cl)cc1 [Compound 178, 2-(4-chlorophenyl)-5-(3,5-dichloro-4-fluoro-phenyl)-1-ethyl-6-methyl-4-oxo-pyridine-3-carboxylic acid] | 0 | 1 (1=0-20%) | 0 | 1 (1=0-20%) | 1 (1=0-20%) | 1 (1=0-20%) | 0 | 0 | 0 | 0 | 0 |  |  |  |  |  |  |  |  |  |  |
| CCn1c(C)c(-c2cccc(OC)c2F)c(=O)c(C(=O)O)c1-c1ccc(Cl)cc1 [Compound 179, 2-(4-chlorophenyl)-1-ethyl-5-(2-fluoro-3-methoxy-phenyl)-6-methyl-4-oxo-pyridine-3-carboxylic acid] | 1 (1=0-20%) | 2 (2=21-40%) | 3 (3=41-60%) | 3 (3=41-60%) | 2 (2=21-40%) | 1 (1=0-20%) | 0 | 3 (3=41-60%) | 1 (1=0-20%) | 3 (3=41-60%) | 1 (1=0-20%) |  |  |  |  |  |  |  |  |  |  |
| CCn1c(C)c(-c2cc(C)c(Cl)c(C)c2)c(=O)c(C(=O)O)c1-c1ccc(Cl)cc1 [Compound 197, 5-(4-chloro-3,5-dimethyl-phenyl)-2-(4-chlorophenyl)-1-ethyl-6-methyl-4-oxo-pyridine-3-carboxylic acid] | 0 |  | 1 (1=0-20%) | 2 (2=21-40%) | 1 (1=0-20%) | 1 (1=0-20%) | 0 | 0 | 0 | 0 | 0 |  |  |  |  |  |  |  |  |  |  |
| CCn1c(C)c(-c2ccc(C#N)cc2)c(=O)c(C(=O)O)c1-c1ccc(Cl)cc1 [Compound 198, 2-(4-chlorophenyl)-5-(4-cyanophenyl)-1-ethyl-6-methyl-4-oxo-pyridine-3-carboxylic acid] |  |  |  |  |  |  |  |  |  |  |  | 0 | 2 (2=21-40%) | 1 (1=0-20%) | 2 (2=21-40%) | 1 (1=0-20%) | 0 | 0 | 0 | 1 (1=0-20%) | ECHCG, percentage damage caused to the plant (five-point scale) [2]: 1 (1=0-20%); percentage damage to the plant, ECHCG (five-point scale) [11]: 0 |
| CCn1c(C)c(-c2cc(F)c(F)c(F)c2)c(=O)c(C(=O)O)c1-c1ccc(Cl)cc1 [Compound 200, 2-(4-chlorophenyl)-1-ethyl-6-methyl-4-oxo-5-(3,4,5-trifluorophenyl)pyridine-3-carboxylic acid] |  |  |  |  |  |  |  |  |  |  |  | 0 | 3 (3=41-60%) | 3 (3=41-60%) | 1 (1=0-20%) | 2 (2=21-40%) | 0 | 3 (3=41-60%) | 2 (2=21-40%) | 2 (2=21-40%) | percentage damage to the plant, ECHCG (five-point scale) [11]: 3 (3=41-60%) |
| CCn1c(C)c(-c2cccc(C(F)(F)F)n2)c(=O)c(C(=O)O)c1-c1ccc(Cl)c(Cl)c1 [Compound 217, 2-(3,4-dichlorophenyl)-1-ethyl-6-methyl-4-oxo-5-[6-(trifluoromethyl)-2-pyridyl]pyridine-3-carboxylic acid] |  |  |  |  |  |  |  |  |  |  |  | 0 | 2 (2=21-40%) | 3 (3=41-60%) | 0 | 0 | 1 (1=0-20%) | 3 (3=41-60%) | 2 (2=21-40%) | 3 (3=41-60%) | ECHCG, percentage damage caused to the plant (five-point scale) [2]: 1 (1=0-20%); percentage damage to the plant, ECHCG (five-point scale) [11]: 1 (1=0-20%) |
